Experimental data as given in publication PMC11278660, “Molecular, Genetic, and Biochemical Characterization of OXA-484 Carbapenemase, a Difficult-to-Detect R214G Variant of OXA-181” (Microorganisms, 2024).

Test system: T1, OXA-484
T1 construct: gene blaOXA-484; mature beta-lactamase AA20-265 in pET41b(+), expressed in E. coli BL21(DE3), purified; gene 798 bp; natural variant equal to OXA-181 with R214G
Experiment: inhibition of beta-lactam hydrolysis
Type: biochemical, Escherichia coli
Conditions: reporter substrate not stated

| Structure (SMILES) | IC50 [µM] |
| --- | --- |
| O=C(O)[C@H]1/C(=C/CO)O[C@@H]2CC(=O)N21 [clavulanic acid] | 19 |
| C[C@]1(Cn2ccnn2)[C@H](C(=O)O)N2C(=O)C[C@H]2S1(=O)=O [tazobactam] | 1.09 |

Test system: T1, OXA-484
Experiment: UV spectrophotometry, initial rates, Eadie-Hofstee plot
Type: biochemical, Escherichia coli
Conditions: 30 °C, 100 mM sodium phosphate, pH 7.0; read-out: Km (μM) / OXA-181
Excerpt: UV spectrophotometry, initial rates, Eadie-Hofstee plot on OXA-484

| Structure (SMILES) | Km [µM] |
| --- | --- |
| CO/N=C(\C(=O)N[C@@H]1C(=O)N2C(C(=O)O)=C(COC(C)=O)CS[C@H]12)c1csc(N)n1 [Cefotaxime] | > 1000 |

Same assay, conditions: 30 °C, 100 mM sodium phosphate, pH 7.0; read-out: Km (μM) / OXA-484

| Structure (SMILES) | Km [µM] |
| --- | --- |
| CC1(C)S[C@@H]2[C@H](NC(=O)[C@H](N)c3ccccc3)C(=O)N2[C@H]1C(=O)O [Ampicillin] | 653 ± 72.2 |
| CC1(C)S[C@@H]2[C@H](NC(=O)Cc3ccccc3)C(=O)N2[C@H]1C(=O)O [Benzylpenicillin] | 33 ± 1.9 |
| CC(=O)OCC1=C(C(=O)O)N2C(=O)[C@@H](NC(=O)Cc3cccs3)[C@H]2SC1 [Cefalotin] | 37 ± 2.6 |
| C[C@@H](O)[C@H]1C(=O)N2C(C(=O)O)=C(S[C@@H]3CN[C@H](C(=O)Nc4cccc(C(=O)O)c4)C3)[C@H](C)[C@H]12 [Ertapenem] | 27 ± 1.2 |
| C[C@@H](O)[C@H]1C(=O)N2C(C(=O)O)=C(SCCN=CN)C[C@H]12 [Imipenem] | 6 ± 2.1 |
| C[C@@H](O)[C@H]1C(=O)N2C(C(=O)O)=C(S[C@@H]3CN[C@H](C(=O)N(C)C)C3)[C@H](C)[C@H]12 [Meropenem] | 263 ± 9.4 |
| CO[C@@]1(NC(=O)C(C(=O)O)c2ccsc2)C(=O)N2[C@@H](C(=O)O)C(C)(C)S[C@@H]21 (stereo partly shown) [Temocillin] | 178 ± 25.1 |
